Laboratory results from patent US20230128402A1 (The Trustees of Princeton University, priority 2020, published 2023).
Like-named read-outs stand apart in the source and are kept apart here.

Columns and labels:
[1] = Fast and refeed insulin secretion in db/db mice; format: in vivo, mouse; details: 40 mg per kg oral gavage once per day, 14 days
Method: C57/Bl6 mice homozygous for the spontaneous mutation (Lepr^db, referred to as db/db) that develop severe obesity and Type 2 Diabetes within 12 weeks were raised through standard husbandry practice and we separated into two groups followed by acclimatization for 9 days in single housing.
Daily food intake and body mass were monitored each day and baseline levels of plasma insulin and glucose were monitored to confirm identical group characteristics.
Compound MBE1 was dissolved to 200 mg/mL in DMSO followed by suspension into a 0.5% methycellulose, 0.5% Tween-80 solution. Mice were treated via oral gavage once per day to achieve 40 mg per kg body mass MBE1 or were treated with vehicle control. Mouse body mass and food consumption were monitored daily over 14 days.
At Day 14, food was removed from mouse cages for 16 hours, and then food was reintroduced. Plasma insulin levels were assayed by ELISA at baseline and at 1 hour, 2 hour and 4 hours following provision of chow and ad libitum feeding.

[2] = Toxicity experiments in C57Bl6 mice; format: in vivo, mouse; details: IP, ascending 12.5 to 200 mg/kg at 24h intervals; 25 mg/kg every 3 days for 18 days
Method: All mice were originally ordered from the Jackson Laboratory (Bar Harbor, Me.) and breeding was conducted in a specific pathogen-free (SPF) barrier facility. Toxicity experiments were performed on 8-12-week old male and female C57Bl6 mice. MBE1 was dissolved at 50 mg/mL in DMSO followed by a […] into Kolliphor EL, followed by a 1:5 dilution into PBS to yield a 5 mg/ml MBE1 solution, (10% DMSO, 10% Kolliphor EL, 80% PBS). This was administered via IP injection at ascending doses from 12.5 to 200 mg/kg body mass in a set of 3 mice at 24h intervals. Body condition score, food uptake, fecal/urine production, behavior and body weight were measured as toxicity readouts. Five mice were then treated every 3 days with 25 mg/kg MBE1 for 18 days.

[3] = Pharmacokinetic profiling in mice
SUM 159-M1a cells [4] = assay: SUM 159-M1a xenograft metastasis, tail vein or intracardiac injection; format: in vivo, mouse; details: IP in conjunction with paclitaxel; FIGS. 9B and 10B
Method: All xenograft experiments were conducted on 8-week old female mice (athymic Nu/Nu, or NOD/SCID Gamma). Xenograft experiments were conducted using 125,000 SUM 159-M1a cells in 100 μL PBS for tail vein or intracardiac injection. Mice were randomized following injection. Bioluminescent imaging (BLI) was conducted using the IVIS 200 system and retroorbital luciferin injection. For drug treatment, MBE1 was given to mice via IP injection in conjunction with paclitaxel (5 mg/mL in 10% ethanol, 10% Kolliphor EL, 80% PBS) at the time intervals and dosages indicated in FIG. 9A (tail vein injection) and FIG. 10A (intracardiac injection).

SUM 159-M1a cells [5] = details: shown in PCT/US2019/044278; cited from earlier work
ALDH1a3 [6] = target: T1, ALDH1a3 (Homo sapiens, UniProt P47895); assay: ALDEFLUOR assay in SUM159-M1a-Aldh1a3 cells; format: cell-based; design: lentiviral vectors containing either the vector backbone or full-length human Aldh1a3; expressed in transfected cells; host or cells: SUM159-M1a human breast cancer cells, lentiviral pLex vector; details: for inhibition of ALDH1a3 activity (percentage of ALDEFLUOR-positive cells): 100 nM, FIG. 6A; for inhibitory activity detected at concentrations as low as: SUM 159-M1a-Aldh1a3 cells, FIG. 6B
T1 sequence (P47895 1-512): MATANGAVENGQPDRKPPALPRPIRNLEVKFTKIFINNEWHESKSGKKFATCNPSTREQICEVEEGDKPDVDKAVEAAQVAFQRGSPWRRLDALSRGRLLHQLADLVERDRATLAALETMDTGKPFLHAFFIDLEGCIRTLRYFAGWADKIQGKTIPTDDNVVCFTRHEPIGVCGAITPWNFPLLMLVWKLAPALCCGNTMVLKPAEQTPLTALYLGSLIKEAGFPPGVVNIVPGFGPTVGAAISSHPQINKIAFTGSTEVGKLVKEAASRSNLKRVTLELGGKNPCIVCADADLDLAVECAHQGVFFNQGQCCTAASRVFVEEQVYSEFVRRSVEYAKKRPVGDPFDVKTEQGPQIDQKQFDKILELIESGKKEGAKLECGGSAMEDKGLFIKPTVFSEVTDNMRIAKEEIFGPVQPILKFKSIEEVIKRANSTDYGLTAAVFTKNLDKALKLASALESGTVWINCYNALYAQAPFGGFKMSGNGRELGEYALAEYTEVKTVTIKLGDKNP
Method: Cells were counted, centrifuged and resuspended at 1,000,000 cells/mL in ALDEFLUOR™ buffer (Stemcell Technologies). ALDEFLUOR™ substrate (Stemcell Technologies, 1:200) and test compound or 1 mM DEAB were added to cell suspension and incubated at 37° C. for 45 minutes with vortexing every 15 minutes. Cells were centrifuged and resuspended in ALDEFLUOR™ buffer with DAPI at 5 μg/mL. Samples were analyzed with the BD LSR2 flow cytometry platform. Gating was performed using DEAB as a negative control.
(§1) Gating for background fluorescence was performed using 1 millimolar DEAB as a negative control.
The [inh-min]threshold was set at the lower bound of two standard deviations of control samples, while the IC50 threshold was set at 50% of the average of control samples.
An ALDEFLUOR™ assay was also used to assess the relative activity of several compounds described herein against SUM159-M1a-Aldh1a3 cells.

MDA-MB-468 cells = assay: MDA-MB-468 mammary fat pad primary tumor xenograft; format: in vivo, mouse; details: 25 mg/kg daily, 12 days
Method: In yet another xenograft experiment, mice were injected with MDA-MB-468 cells via mammary fat pad, and were randomized following injection. […] Primary tumor measurements were taken by caliper between each treatment group.

[7] = male, CD-1/C57BL/6, mouse, in vivo
in vivo = details: male, CD-1/C57BL/6, mouse
HCT116 cells = assay: HCT116 left ventricle injection metastasis xenograft; format: in vivo, mouse; details: 50 mg/kg subcutaneously every day, paclitaxel 25 mg/kg every three days
Method: In another xenograft experiment, mice were injected HCT116 cells via left ventricle injection and monitored with BLI on a weekly basis during the experiment. MBE1.5 or vehicle control were injected subcutaneously every day following injection at 50 mg/kg. At day 7 following injection, paclitaxel was dosed at 25 mg/kg every three days for a total of 6 injections. N=10 mice per group.

ALDH1a3 [8] = target: T2, ALDH1a3 (Mus musculus, UniProt Q9JHW9); assay: ALDEFLUOR assay on pancreatic cells from diabetic and lean mice; format: cell-based; details: 10 μM; diabetic vs healthy mice
T2 construct: from tissue; host or cells: pancreatic cells from C57/BL6 mice (diet-induced diabetic and lean)
T2 sequence (Q9JHW9 1-512): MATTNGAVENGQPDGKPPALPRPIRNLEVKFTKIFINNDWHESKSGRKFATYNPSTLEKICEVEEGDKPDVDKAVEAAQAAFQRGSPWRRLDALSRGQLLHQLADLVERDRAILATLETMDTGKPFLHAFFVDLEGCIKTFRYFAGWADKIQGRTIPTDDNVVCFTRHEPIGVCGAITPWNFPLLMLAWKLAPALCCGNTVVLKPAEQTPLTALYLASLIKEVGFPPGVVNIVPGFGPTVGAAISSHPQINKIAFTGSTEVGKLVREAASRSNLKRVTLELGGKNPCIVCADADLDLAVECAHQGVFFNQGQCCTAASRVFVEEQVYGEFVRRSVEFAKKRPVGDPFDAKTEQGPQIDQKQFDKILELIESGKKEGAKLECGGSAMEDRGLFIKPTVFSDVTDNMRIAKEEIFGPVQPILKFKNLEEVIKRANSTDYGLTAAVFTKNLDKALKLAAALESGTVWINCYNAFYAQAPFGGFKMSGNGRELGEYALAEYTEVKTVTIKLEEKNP
Method: In the ALDEFLUOR™ assay used in this example, 14 month-old C57/BL6 high fat diet-induced severe obese/diabetic mice and 3 month-old lean C57/B16 mice were euthanized and pancreatic cells were extracted with 1 mg/mL Collagenase 1 digestion in PBS for 1 hour at 37 C. Single cell suspensions were obtained by filtration through 40 μm cell sieves. Cells were washed by two sequential centrifugations and resuspension in PBS.
Cells were counted, centrifuged and resuspended at 1,000,000 cells/mL in ALDEFLUOR™ buffer (Stemcell Technologies). ALDEFLUOR™ substrate (Stemcell Technologies, 1:200) and test compound (MBE 1.5 at 10 μM or 1 mM DEAB were added to cell suspension and incubated at 37° C. for 45 minutes with vortexing every 15 minutes. Cells were centrifuged and resuspended in ALDEFLUOR™ buffer with DAPI at 5 μg/mL. Samples were analyzed with the BD LSR2 flow cytometry platform.
as §1

[9] = system: Sum-159-M1a-Aldh 1a3 cells; assay: Sum-159-M1a-Aldh1a3 tail-vein lung metastasis xenograft; format: in vivo, mouse; details: 25 mg/kg daily, 12 days, with paclitaxel 12.5 mg/kg every other day
Method: In another xenograft experiment, mice were injected with Sum-159-M1a-Aldh 1a3 cells via tail-vein injection, and were randomized following injection. Mice were treated with MBE1.5 (25 mg/kg daily) or vehicle, and paclitaxel (12.5 mg/kg every other day) for twelve days. Lung metastasis progression was tracked by intravital bioluminescence.

SUM 159-M1-p44 cells = assay: SUM 159-M1-p44 tail-vein lung metastasis xenograft; format: in vivo, mouse; details: 50 mg/kg with 25 mg/kg paclitaxel on days 17, 19 and 21
Method: In another xenograft experiment, mice were injected with SUM 159-M1-p44 cells via tail-vein injection, as described above, and randomized following injection. Metastatic burden was imaged on day 16 via intravital imaging. Mice were then treated with paclitaxel (25 mg/kg) and either vehicle or MBE1.5 (50 mg/kg) on days 17, 19 and 21. Lung metastatic burden was then imaged on day 22. Signals were normalized to day 16.

HEK293T cells = assay: LC-MS metabolite quantification in HEK293T cells; format: cell-based; details: 10 uM, 1 hour
Method: HEK293T cells were grown to full confluence and media was exchanged with complete DMEM media supplemented with 10% dialyzed fetal bovine serum. Three replicate plates per group were treated with 10 uM MBE1.5 or control DMSO for 1 hour followed by organic extraction with 40:40:20 methanol:acetonitrile:water w/0.5% formic acid (ice cold). Plates were immediately transferred to ice and incubated for 5 minutes then 50 ul 15% NH4HCO3 was added. Cells lysates were scraped and centrifuged at 15000 RCF. Supernatants were then analyzed via LC-MS to quantify various metabolites using standard metabolomic protocols.

[10] = SUM159-M1a-Aldh1a3 cells, compound at 100 nM
[11] = with paclitaxel 12.5 mg/kg every other day

CCc1cnccc1C(=O)Nc1cc2c(cc1F)NC(=O)CC2 [Compound 1, 3-ethyl-N-(7-fluoro-2-oxo-3,4-dihydro-1H-quinolin-6-yl)pyridine-4-carboxamide]
plasma insulin after fast and refeed challenge (ELISA) [1]: effectively improve insulin secretion | acute or chronic toxicity [2]: Neither experiment showed any indication of either acute or chronic toxicity | cage side observations, adverse reactions ([3]; 10 mg/kg oral gavage or 1 mg/kg intravenous, 0 hours to 24 hours post-dosing): no adverse reactions | half-life ([3]; male, CD-1/C57BL/6, mouse, plasma, iv, 1 mg/kg): 1.79 h | bioavailability ([3]; male, CD-1/C57BL/6, mouse, plasma, oral, 10 mg/kg): 88% | half-life ([3]; male, CD-1/C57BL/6, mouse, plasma, po, 10 mg/kg): 1.37 h | time plasma concentrations exceed 5-fold the IC50 ([3]; mice, oral gavage (PO) and intravenous (IV)): > 10 h | lung and bone metastasis (BLI) (SUM 159-M1a cells [4]): effective therapeutic to treat established metastatic disease | metastatic lesions in mice (SUM 159-M1a cells [5]): shrink metastatic lesions in mice without toxicity | inhibition of ALDH1a3 activity (percentage of ALDEFLUOR-positive cells) (ALDH1a3 [6]): high-affinity compounds for the inhibition of ALDH1a3 activity | inhibitory activity detected at concentrations as low as (ALDH1a3 [6]): 2 nM | Inhi-bitory Activity at 100 nM (%) (ALDH1a3 [6]; [10]): 99% | Percent of Cells Positive for ALDEFLUOR ™ at 100 nM (ALDH1a3 [6]; [10]): 0.73%

CCc1ccccc1C(=O)Nc1cc2c(cc1F)NC(=O)CC2 [Compound 4, 2-ethyl-N-(7-fluoro-2-oxo-3,4-dihydro-1H-quinolin-6-yl)benzamide]
tumors completely eliminated (MDA-MB-468 cells; n=6, with paclitaxel): tumors of two mice in the MBE1.5 treatment group were completely eliminated | gross toxicity (body mass) (MDA-MB-468 cells; [11]): no gross toxicity | primary tumor volume (MDA-MB-468 cells; [11]): caused regression of primary breast tumors | time plasma concentrations exceed 5-fold the IC50 [7]: > 10 h | bioavailability (in vivo): 62.5% | half-life (in vivo; iv, 1 mg/kg): 1.22 h | half-life (in vivo; po, 10 mg/kg): 1.7 h | colorectal cancer metastasis (BLI) (HCT116 cells): slows colorectal cancer metastasis | percentage of ALDEFLUOR-positive pancreatic islet cells (ALDH1a3 [8]): high-affinity compound for the inhibition of ALDH1a3 activity | inhibition of ALDH1a3 activity (percentage of ALDEFLUOR-positive cells) (ALDH1a3 [6]): high-affinity compounds for the inhibition of ALDH1a3 activity | inhibitory activity detected at concentrations as low as (ALDH1a3 [6]): 2 nM | survival [9]: extended survival in mice with late-stage established breast cancer lung metastasis | lung metastatic burden (BLI) (SUM 159-M1-p44 cells): caused regression of established metastatic disease | NADH (LC-MS) (HEK293T cells): depletion of NADH | adipate semialdehyde (LC-MS) (HEK293T cells): increases in adipate semialdehyde
